Results taken from PubChem BioAssay (NCI).
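Grown in 96-well plates, cells were treated for 48 hours with each compound at five concentrations. Insufficient inhibition: endpoint recorded as highest concentration tested. GI50 is the concentration that inhibits growth by half. The concentration for full growth arrest is given as TGI.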

Legend:
Experiment in all cases: DTP human tumour cell line panel, 48 h
[1] = test system: HT29 colon
[2] = test system: TK-10 renal
[3] = test system: SF-539 CNS
[4] = test system: NCI-H460 lung
[5] = test system: BT-549 breast
[6] = test system: LOX IMVI melanoma
[7] = test system: PC-3 prostate
[8] = test system: SF-268 CNS
[9] = test system: K-562 leukemia
[10] = test system: SK-MEL-5 melanoma
[11] = test system: ACHN renal
[12] = test system: M14 melanoma
[13] = test system: UACC-62 melanoma
[14] = test system: A498 renal
[15] = test system: EKVX NSCLC
[16] = test system: MDA-MB-231 breast
[17] = test system: COLO 205 colon
[18] = test system: IGROV1 ovarian
[19] = test system: UACC-257 melanoma
[20] = test system: SF-295 CNS
[21] = test system: SNB-75 CNS
[22] = test system: U251 CNS
[23] = test system: SK-OV-3 ovarian
[24] = test system: OVCAR-3 ovarian
[25] = test system: HCT-15 colon
[26] = test system: DU-145 prostate
[27] = test system: CAKI-1 renal
[28] = test system: MOLT-4 leukemia
[29] = test system: KM12 colon

In the case of `N#CSc1cc(-c2nc3ccccc3o2)ccc1N`, the GI50 [1] is reported as 37.7 µM, the TGI [1] is reported as over 100 µM and the GI50 [2] is reported as 19.2 µM. For the same compound, the TGI [2] was 52.3 µM, the GI50 [3] was 22.4 µM and the TGI [3] was 45.3 µM. For the same compound, the GI50 [4] was 24 µM, the TGI [4] was over 100 µM and the GI50 [5] was 23.8 µM. For the same compound, the TGI [5] was over 60.9 µM, the GI50 [6] was 13.5 µM and the TGI [6] was 43.9 µM. For the same compound, the GI50 [7] was 12.5 µM, the TGI [7] was 81.6 µM and the GI50 [8] was 22.6 µM. For the same compound, the TGI [8] was 83.4 µM, the GI50 [9] was 2.55 µM and the TGI [9] was over 89.3 µM. The GI50 [10] was 11.1 µM, the TGI [10] was 29.2 µM and the GI50 [11] was 19.2 µM. The TGI [11] was 58.5 µM, the GI50 [12] was 26.2 µM and the TGI [12] was 80.4 µM. For the same compound, the GI50 [13] was 13.6 µM, the TGI [13] was 30.8 µM and the GI50 [14] was 31.2 µM. For the same compound, the TGI [14] was over 82.2 µM, the GI50 [15] was 5 µM and the TGI [15] was 37.2 µM. It also gave a GI50 [16] of over 100 µM, a TGI [16] of over 100 µM and a GI50 [17] of 40.5 µM. It also gave a TGI [17] of over 100 µM, a GI50 [18] of 27.2 µM and a TGI [18] of over 70.1 µM. For the same compound, the GI50 [19] was 1.77 µM, the TGI [19] was 26.4 µM and the GI50 [20] was 17.1 µM. The TGI [20] was over 74.1 µM, the GI50 [21] was 1.83 µM and the TGI [21] was over 20.7 µM. For the same compound, the GI50 [22] was 11.8 µM, the TGI [22] was 57.3 µM and the GI50 [23] was 76.5 µM. It also gave a TGI [23] of over 100 µM, a GI50 [24] of 17.9 µM and a TGI [24] of over 56.7 µM. The GI50 [25] was 23.2 µM, the TGI [25] was over 100 µM and the GI50 [26] was over 67.7 µM. It also gave a TGI [26] of over 100 µM, a GI50 [27] of 25.5 µM and a TGI [27] of 61.9 µM. It also gave a GI50 [28] of 4.09 µM, a TGI [28] of 22.1 µM and a GI50 [29] of 6.54 µM.
